In patent US10076491B2, “Vaccine composition” (NITTO DENKO CORPORATION, priority 2013, dated 2018):

Test system: IFN-γ-producing cells (spleen cells)
Assay: Mouse immunization test with cream formulation for transdermal administration, ELISPOT method (IFN-γ)
Format: in vivo
Details: FIG. 1 / Table 2, combination with Th1 adjuvant imiquimod (IMQ), OVAp
Procedure: Spleen cells (3×10^6 cells/well) and an antigen peptide (100 μM) or an antigen protein (100 μg/mL) together with the culturing medium were placed into a well of an ELISPOT plate on which an anti-mouse IFN-γ antibody had been immobilized. The plate was cultured for 20 hours under the condition of 37° C. and 5% CO2. The number of the spots representing IFN-γ-producing cells (spot number/3×10^6 cells) was evaluated by the ELISPOT method.
Mouse Immunization Test with Cream Formulation for Transdermal Administration
Mouse immunization test was performed with the cream formulations prepared as described above using a model animal for immunological evaluation. The immunity induction level was evaluated by ELISPOT method. Specifically, the hair of the back of the mouse was cut, and the mouse was kept until it recovered from the skin damage due to the hair cutting. After that, 4 mg of each cream formulation was applied to the skin of the back of the mouse for 24 hours, and then removed. After 6 days, the level of the cellular immunity induction specific for the antigen was evaluated. Six days after the administration, the spleen of the mouse was removed to prepare a suspension of spleen cells. […] The number of the spot representing IFN-γ producing cells (spot number/3×10^6 cells) was evaluated by ELISPOT method.

Compound	effect of combination of Th2 cell differentiation inhibitor and Th1 adjuvant (ELISPOT)
COc1ccc2cc3[n+](cc2c1OC)CCc1cc2c(cc1-3)OCO2 [berberine]	synergistic effect
CC(C(=O)O)c1ccc(CC2CCCC2=O)cc1 (centres unmarked) [loxoprofen]	synergistic effect
